The values below come from patent US9243281B2, “Neuroprotective chemicals and methods for identifying and using same” (Board of Regents of The University of Texas System, priority 2013, dated 2016).

Common to all, as to format: cell-based
Experiment [1] concerns U2OS cells. Briefly: cell survival assay with seven other toxins. To be noted: 5 μM P7C3-A20 2 h prior to toxins for 72 h. The procedure: FIG. 8. P7C3A20 protects U2OS cells from doxorubicin-mediated toxicity. U2OS cells were treated with 5 μM P7C3-A20 for 2 h prior to incubation with the indicated concentrations of eight toxins for 72 h.
(§1) Progress on studies aimed towards resolving the mode of action of P7C3 has been hampered by the fact that we have been limited to studies of drug action in living animals. Our standard assay of neurogenesis requires, under optimal conditions, a one month turn-around from the synthesis of a new derivative to a score for its neuroprotective activity. In efforts to break this logjam, we tested whether P7C3 might have cell-protective activity to any of eight generic toxins.
Cell survival assay was performed in 96-well plates using CellTiter-Glo Luminescent Cell Viability Assay kit (Promega) that measures cellular ATP content. The CellTiter-Glo reagent was diluted by adding 2 volumes of PBS containing 1% Triton X-100. 50 μl of diluted reagent was directly added to 100 μl of cell culture medium per well. […] Luminescence was recorded by Tecan […]luor Plus reader (Tecan). Cell survival was presented as the percentage of viable cells compared with untreated control, and mean±SD was calculated from duplicates. The dox:tox assay of P7C3 analogs was carried out in the HTS Core (University of Texas Southwestern Medical Center) using the EnVison multimode plate reader (Perkin Elmer).

Experiment [2] concerns U2OS cells. Briefly: western blotting of caspase-3 activation and γ-H2AX after doxorubicin. Here is the method:
FIGS. 9A-9B. […] (FIG. 9A) U2OS cells were treated with increasing concentrations of P7C3-A20 for 2 h prior to exposure to 0.5 μM doxorubicin for another 2 h. Cells were harvested and subjected to western blotting with the DNA damage marker, γ-H2AX. Actin was served as loading control. (FIG. 9B) U2OS cells were treated with P7C3-A20 and doxorubicin for the indicated time. Caspase-3 activation was determined by western blotting. Caspase-3 cleavage was observed when treated with doxorubicin alone at 60 h, but was prevented in the presence of P7C3-A20.
as §1
A general note: Immunoblotting shows a protein as a band on a membrane.

Experiment [3] has as its system U2OS cells. Briefly: doxorubicin toxicity (dox:tox) protection assay, Cell Titer Glo cell survival. To be noted: cultured U2OS cells. From the text:
FIGS. 2A-2D. […] (FIG. 2A) Chemical structure of P7C3-S326. […] (FIG. 2C) Formulas used for calculating doxorubicin toxicity (dox:tox) protection activity. Protection activity is expressed by (Sinf−S0)/AC50 in the twelve-point dose response curve (DRC) corresponding to each compound, wherein both efficacy and potency of compounds were considered. Sinf represents the expected maximal protection. S0 is the baseline. […] In the photo-crosslinking assays, the p70 band intensity was quantified by Image J, and compared the sample of P7C3-S326 alone with that of P7C3-S326 plus competitor. Pearson correlation coefficient (r) and two tailed P value were determined by GraphPad Prism 6 and Spearman Rank Correlation (v1.0.1) software.
FIG. 10. Twelve-point dose response curves (DRC) of all tested compounds in doxorubicin toxicity protection assay. […] Cell viability was determined by Cell Titer Glo assay kit.
Cell survival assay was performed in 96-well plates using CellTiter-Glo Luminescent Cell Viability Assay kit (Promega) that measures cellular ATP content. The CellTiter-Glo reagent was diluted by adding 2 volumes of PBS containing 1% Triton X-100. 50 μl of diluted reagent was directly added to 100 μl of cell culture medium per well. Plates were incubated at room temperature for 10 minutes. Luminescence was recorded by Tecan […]luor Plus reader (Tecan). Cell survival was presented as the percentage of viable cells compared with untreated control, and mean±SD was calculated from duplicates. The dox:tox assay of P7C3 analogs was carried out in the HTS Core (University of Texas Southwestern Medical Center) using the EnVison multimode plate reader (Perkin Elmer).
On the technique in general: ATP-based viability assays read luminescence as a measure of living cells.

On to `COc1cccc(NCC(F)Cn2c3ccc(Br)cc3c3cc(Br)ccc32)c1` (stereo not shown) [S10], for which the “protection from seven other toxins” value with U2OS cells [1] is recorded as “no evidence of drug-mediated protection”. Also, the “DNA damage response (phosphorylation of H2AX)” value in the experiment on U2OS cells [2] (0.5 μM doxorubicin) is given as “not DNA damage response”. Further, the “doxorubicin-induced apoptosis (caspase-3 activation)” value in the experiment on U2OS cells [2] (co-administration with doxorubicin) is reported as “blocked doxorubicin-induced apoptosis”. Further, in the experiment with U2OS cells [3], the “protection from doxorubicin-mediated toxicity (dox:tox assay)” value is “protect cultured U2OS cells from doxorubicin-mediated toxicity”.
